Measurements from patent publication US9913816B2, “Method for applying metformin and sodium butyrate in K-ras mutation cancer treatment” (Johnpro Biotech Inc., priority 2013, dated 2018).

System: HCT116 cells
Conditions: 72 hours; final concentration 0.75 mM sodium butyrate, 2 mM metformin, alone or both in combination; FIG. 1
Description: The human colon cancer cell HCT116 (cell line with K-ras mutation) is cultured in the McCoy's 5A with 10% fetal bovine serum. When the HCT116 cells are cultured to the appropriate number, then the adherent HCT116 cells are suspended, and 2.5×10^5 HCT116 cells per well are seeded in a 6-wells dish. After incubated for 12 hours, sodium butyrate with a final concentration of 0.75 mM, metformin with a final concentration of 2 mM, and the pharmaceutical composition with final concentration of […] are respectively added to the 6-wells dish as above mentioned.
In this embodiment, the final concentration as mentioned means the concentration of respective substances after added in the medium for cell culture, and therefore the medium respectively contains 0.75 mM sodium butyrate, 2 mM metformin, or 0.75 mM sodium butyrate and 2 mM metformin.
After respectably added the above compounds to HCT116 cells, the 6-well dish is incubated in an incubator of 37° C. for 72 hours. After that, the medium and compounds in each well are sequentially removed, and each well is washed by Phosphate Buffered Saline (PBS), then the HCT116 cells are harvested, by treating trypsin-EDTA, for apoptosis analysis.
The apoptosis analysis is based on the Annexin V apoptosis detection kit (BD Pharmingen) for analysis the exposure of phosphatidylserine, and the protocol follows the accompanying manual. In brief, the treated HCT116 cells are washed three times with PBS, and then immediately stained with Annexin V/Propidium Iodide (PI). 1% fetal bovine serum albumin (BSA) is first added to the treated cells. After subsequently added 222.5 μl of binding buffer, 10 μl of PI and 2.5 μl of Annexin V-FITC are directly then added to stain the cells, followed by immediate incubation for 10 minutes at low temperature in the dark. The percentage of the apoptosis is calculated by the flow cytometry and FACSCalibur, the analysis software thereof.

SMILES | apoptotic rate of HCT116 cells | improvement of apoptotic rate compared to the control group
CCCC(=O)[O-].[Na+] [sodium butyrate] | about 20% | about 15%
CN(C)C(=N)N=C(N)N [metformin] | about 20% | about 15%
